Columns and labels:
Assay type in all cases: in vivo
[1] = system: Echinochloa oryzacola Vasing.; assay: Test Example 2: herbicidal activity, application during weed generation in submerged conditions; settings: Eighteenth Table; application herbicide amount 320 g/ha
Outline: (§1)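 Mixed sowings in flooded alluvial soil (4 cm water), greenhouse 25-30 °C; emulsifiable concentrate diluted in water applied to the water surface at the 1-2 leaf stage, rate in g/ha. Effect scored three weeks later on a 0-5 scale (5 = ≥90% herbicidal ratio, 0 = ≤5%).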

Monochoria vaginalis = assay: as above; settings: Eighteenth Table; application herbicide amount 320 g/ha
Outline: as §1

Scirpus juncoides = assay: as above; settings: Eighteenth Table; application herbicide amount 320 g/ha
Outline: as §1

Abutilon theophrasti = assay: Test Example 4: herbicidal effect by application to foliage (diluvial soil, plastic box); settings: Application herbicide amount 320 g/ha; foliage application
Outline: (§2)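 Plants were grown in sterilized diluvial soil in a greenhouse at 25-30° C for 14 days, then sprayed on stems and leaves with water-diluted emulsion formulation at set rates in g/ha. Weed control and crop injury were scored 3 weeks after treatment on a 0-5 herbicidal-ratio scale, from 0 (≤5%) to 5 (≥90%).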

Alopecurus myosuroides = assay: as above; settings: Application herbicide amount 320 g/ha; foliage application
Outline: as §2

Amaranthus retroflexus = assay: as above; settings: Application herbicide amount 320 g/ha; foliage application
Outline: as §2

Apera spica-venti. = assay: as above; settings: Application herbicide amount 320 g/ha; foliage application
Outline: as §2

Avena fatua = assay: as above; settings: Application herbicide amount 320 g/ha; foliage application
Outline: as §2

Chenopodium album = assay: as above; settings: Application herbicide amount 320 g/ha; foliage application
Outline: as §2

Digitaria ciliaris = assay: as above; settings: Application herbicide amount 320 g/ha; foliage application
Outline: as §2

[2] = system: Echinochloa crus-galli var. crus-galli; assay: as above; settings: Application herbicide amount 320 g/ha; foliage application
Outline: as §2

Galium spurium = assay: as above; settings: Application herbicide amount 320 g/ha; foliage application
Outline: as §2

Lolium multiflorum Lam. = assay: as above; settings: Application herbicide amount 320 g/ha; foliage application
Outline: as §2

Stellaria media = assay: as above; settings: Application herbicide amount 320 g/ha; foliage application
Outline: as §2

Veronica persica = assay: as above; settings: Application herbicide amount 320 g/ha; foliage application
Outline: as §2

[3] = system: Beta vulgaris ssp. vulgaris; assay: Test Example 4: effect on crop by application to foliage (diluvial soil, plastic box); settings: Application herbicide amount 320 g/ha; foliage application
Outline: as §2

Brassica campestris L. = assay: as above; settings: Application herbicide amount 320 g/ha; foliage application
Outline: as §2

Glycine max = assay: as above; settings: Application herbicide amount 320 g/ha; foliage application
Outline: as §2

Triticum aestivum = assay: as above; settings: Application herbicide amount 320 g/ha; foliage application
Outline: as §2

Zea mays = assay: as above; settings: Application herbicide amount 320 g/ha; foliage application
Outline: as §2

[4] = system: directly sowed Oryza sativa; assay: as above; settings: Application herbicide amount 320 g/ha; foliage application
Outline: as §2

Row | SMILES | A (Echinochloa oryzicola Vasing.) herbicidal ratio grade [1] | C (Monochoria vaginalis) herbicidal ratio grade (Monochoria vaginalis) | B (Scirpus juncoides) herbicidal ratio grade (Scirpus juncoides) | M (Abutilon theophrasti) herbicidal effect grade (Abutilon theophrasti) | J (Alopecurus myosuroides) herbicidal effect grade (Alopecurus myosuroides) | N (Amaranthus retroflexus) herbicidal effect grade (Amaranthus retroflexus) | L (Apera spica-venti.) herbicidal effect grade (Apera spica-venti.) | I (Avena fatua) herbicidal effect grade (Avena fatua) | O (Chenopodium album) herbicidal effect grade (Chenopodium album) | F (Digitaria ciliaris) herbicidal effect grade (Digitaria ciliaris) | H (Echinochloa crus-galli var. crus-galli) herbicidal effect grade [2] | Q (Galium spurium) herbicidal effect grade (Galium spurium) | K (Lolium multiflorum Lam.) herbicidal effect grade (Lolium multiflorum Lam.) | P (Stellaria media) herbicidal effect grade (Stellaria media) | R (Veronica persica) herbicidal effect grade (Veronica persica) | f (Beta vulgaris ssp. vulgaris) effect on crop grade [3] | g (Brassica campestris L.) effect on crop grade (Brassica campestris L.) | d (Glycine max) effect on crop grade (Glycine max) | e (Triticum aestivum) effect on crop grade (Triticum aestivum) | c (Zea mays) effect on crop grade (Zea mays) | other results
1 | O=C(Nc1nnco1)c1ccc(C(F)(F)F)n2c(-c3ccc(F)cc3)nnc12 [1-147] | 4 (Herbicidal ratio of 70% or more and less than 90%) | 3 (Herbicidal ratio of 40% or more and less than 70%) | 2 (Herbicidal ratio of 20% or more and less than 40%) | 3 (Herbicidal ratio of 40% or more and less than 70%) | 2 (Herbicidal ratio of 20% or more and less than 40%) | 4 (Herbicidal ratio of 70% or more and less than 90%) | 3 (Herbicidal ratio of 40% or more and less than 70%) | 3 (Herbicidal ratio of 40% or more and less than 70%) | 5 (Herbicidal ratio of 90% or more (almost completely withered)) | 4 (Herbicidal ratio of 70% or more and less than 90%) | 4 (Herbicidal ratio of 70% or more and less than 90%) | 3 (Herbicidal ratio of 40% or more and less than 70%) | 3 (Herbicidal ratio of 40% or more and less than 70%) | 5 (Herbicidal ratio of 90% or more (almost completely withered)) | 5 (Herbicidal ratio of 90% or more (almost completely withered)) | 5 (Herbicidal ratio of 90% or more (almost completely withered)) | 5 (Herbicidal ratio of 90% or more (almost completely withered)) | 3 (Herbicidal ratio of 40% or more and less than 70%) | 3 (Herbicidal ratio of 40% or more and less than 70%) | 0 (Herbicidal ratio of 5% or less (almost no effect)) | b (directly sowed Oryza sativa) effect on crop grade [4]: 0 (Herbicidal ratio of 5% or less (almost no effect))
2 | Cc1nnc(NC(=O)c2ccc(C(F)(F)F)n3c(N(C)CCC#N)nnc23)o1 [1-153] | 3 (Herbicidal ratio of 40% or more and less than 70%) | 3 (Herbicidal ratio of 40% or more and less than 70%) | 3 (Herbicidal ratio of 40% or more and less than 70%) | 3 (Herbicidal ratio of 40% or more and less than 70%) | 1 (Herbicidal ratio of 5% or more and less than 20%) | 4 (Herbicidal ratio of 70% or more and less than 90%) | 2 (Herbicidal ratio of 20% or more and less than 40%) | 3 (Herbicidal ratio of 40% or more and less than 70%) | 5 (Herbicidal ratio of 90% or more (almost completely withered)) | 4 (Herbicidal ratio of 70% or more and less than 90%) | 5 (Herbicidal ratio of 90% or more (almost completely withered)) | 4 (Herbicidal ratio of 70% or more and less than 90%) | 1 (Herbicidal ratio of 5% or more and less than 20%) | 5 (Herbicidal ratio of 90% or more (almost completely withered)) | 4 (Herbicidal ratio of 70% or more and less than 90%) | 5 (Herbicidal ratio of 90% or more (almost completely withered)) | 3 (Herbicidal ratio of 40% or more and less than 70%) | 5 (Herbicidal ratio of 90% or more (almost completely withered)) | 2 (Herbicidal ratio of 20% or more and less than 40%) | 0 (Herbicidal ratio of 5% or less (almost no effect)) | b (directly sowed Oryza sativa) effect on crop grade [4]: 3 (Herbicidal ratio of 40% or more and less than 70%)

Reference: patent publication US9708314B2, “Heterocyclic amide compound” (NISSAN CHEMICAL INDUSTRIES, LTD., priority 2013, dated 2017)
